Data from ChEMBL document CHEMBL1128799, “Design and synthesis of a conformationally constrained analog of the bis(heteroaryl)piperazine (BHAP) HIV-1 reverse transcriptase inhibitor atevirdine” (Bioorg Med Chem Lett, 1995).
Structures can show the parent of a compound that is named as a salt.

Experiments:
[1] = test system: Human immunodeficiency virus 1; assay: Effective dose was evaluated for the inhibition of viral replication (PBMC); type: functional; conditions: read-out: ED50 (the source's name)
[2] = molecular target: Human immunodeficiency virus type 1 reverse transcriptase (Human immunodeficiency virus 1) (UniProt Q72547); assay: Compound was tested in vitro for percent inhibition of HIV- I reverse transcriptase (RT) at dose 100 uM

| EC50 [1] [pM] | inhibition [2] [%] | SMILES |
| --- | --- | --- |
| 100 |  | CC(C)Nc1cccnc1N1CCN(C(=O)c2cc3cc(NS(C)(=O)=O)ccc3[nH]2)CC1 [DELAVIRDINE MESYLATE] |
|  | 38 | CCN1CC2(CCN(C(=O)c3cc4cc(NS(C)(=O)=O)ccc4[nH]3)CC2)c2ncccc21 |
| 1000 |  | CCNc1cccnc1N1CCN(C(=O)c2cc3cc(OC)ccc3[nH]2)CC1 [ATEVIRDINE SULPHATE] |
